Results: patent US12600725B2 (Memorial Sloan-Kettering Cancer Center, priority 2013, dated 2026)
Entries after “also recorded” stand apart in the source; their conditions may differ.

Legend:
[1] = system: TLR9 ligand CpG DNA induced TNF-α production in RAW 264.7 macrophages; assay: TNFα ELISA, CpG DNA stimulated macrophages; type: cell-based, mouse
[2] = system: EGFR overexpressing triple negative breast cancer cells; assay: Apoptosis (Annexin V / 7AAD, cleaved PARP) in triple negative breast cancer cells; type: cell-based
Procedure: The Grp94 inhibitors of the disclosure can be used to treat patients with EGFR overexpressing triple negative breast cancer. As shown in FIGS. 13a-c, EGFR overexpressing triple negative breast cancer cells are sensitive to the selective Grp94 inhibitor PU-WS13. The sensitivity of the EGFR overexpressing triple negative breast cancer cells was tested for the presence of apoptotic cells by Annexin V staining (13a, 13b) and by immunoblotting for the presence of cleaved PARP (13c). […] The Grp94 inhibitors of the disclosure can be used to treat patients with EGFR overexpressing pancreatic cancer. […]
Cell fractionation and immunoblotting. […] Protein concentrations were determined using BCA kit (Pierce) according to the manufacturer's instructions. […]
Cell cycle and apoptosis assessment. Cell cycle and apoptosis were assessed by flow cytometry after single staining with propidium iodide (PI, BD Pharmingen) or double staining with AnnexinV-FITC (BD Pharmingen) and 7AAD (BD Pharmingen), respectively. […] DNA content was measured by BD LSRII flow cytometer and cell further analyzed using program of cell cycle analysis in FloJo (Ashland, OR). […] Signals from FL1 and FL3 channels were collected by MACSQuant analyzer and further analyzed using FloJo. […]

HEK293 cells = assay: Toxicity to HEK293 cells; type: cell-based, human
97 kinases = assay: Kinase screen (Discoverx scanEDGE / KINOMEscan); type: binding; conditions: tested at 10 uM
Capan-2 cells = assay: Cell viability assessment (CellTiter-Glo); type: cell-based

CC(C)NCCCn1c(Sc2cc(Cl)cc(Cl)c2)nc2c(N)ncnc21 [PU-WS13]
CpG DNA induced TNF-α production [1]: inhibited this response in a concentration dependent manner; also recorded: inhibit
sensitivity (apoptosis, cleaved PARP) [2]: sensitive
toxicity to HEK293 cells (HEK293 cells): not toxic
effect on the tested 97 kinases (97 kinases): no significant effect
effect on cell growth (Capan-2 cells): no effect
